In patent publication US20240285808A1, “MOLECULAR PROBES FOR IN VIVO DETECTION OF ALDEHYDES” (The General Hospital Corporation, priority 2021, published 2024):
Several values for one entry are separate records, joined by “and”; a condition that tells them apart may be missing. Identical values can stand only once. Entries after “also recorded” stand apart in the source; their conditions may differ.

Legend:
[1] = Transmetalation experiment with Zn^2+ monitored by relaxivity; assay type: physicochemical; conditions: 1 mM complex, 25 mM Zn^2+, 50 mM pH 6.0 MES buffer, 37° C., 1.4 T
[2] = Biodistribution of manganese in healthy mice 60 minutes post-injection; assay type: in vivo, mouse; conditions: 0.1 mmol/kg i.v.
Excerpt: (§1) To meet these requirements, the probes Mn-12, Mn-13 and Mn-14 were designed based on the stable Mn-1,4-DO2A chelate. […] This combination of stability, turn-on relaxivity, and low uptake in healthy liver indicate that Mn-12 is quite promising as a novel probe for liver fibrogenesis detection.

[3] = Reaction rates with butyraldehyde measured by HPLC-ICP-MS (Method B); assay type: physicochemical; conditions: Method b: butyraldehyde 100 μM, probe 25 μM, pH 7.40
Procedure: Method B: Reaction Rates of Compounds with Butyraldehyde Measured by HPLC-ICP-MS
The reactions were conducted in pH 7.40 phosphate-buffered with butyraldehyde concentration of 100 μM and hydrazine probes at 25 μM. Concentrations of unreacted starting material and condensation products were determined at 10 min time intervals over 2 hours based on their relative integrations. The values were fit to a standard first order rate constant linear equation and the rate constant was extracted from the slope.
Reaction with Butyraldehyde Monitored by HPLC-ICP-MS
Reactions were conducted in pH 7.4 phosphate-buffered saline with butyraldehyde concentration of 100 μM and hydrazine probes at 25 μM. Concentrations of unreacted starting material and condensation products were determined based on their relative integrations at 12 min time intervals over 2 hours.

[4] = target: bovine serum albumin (BSA) (Bos taurus, UniProt P02769); test: Relaxivity measurements with BSA; assay type: binding; conditions: 1.4 T, 37° C., BSA 10 mg/mL
Procedure: (§2) BSA-ALD (10 mg/mL) or BSA (10 mg/mL) were treated for 24 hours at 37° C. with the corresponding Gd or Mn complex at a range of concentrations (0.01-0.2 mM), with a total volume of 300 μL maintained for all samples. After 24 hours, an aliquot of the solution (50 μL) was used for longitudinal (T1) relaxation measurements, recorded using a Bruker mq60 Minispec at 1.41 T and 37° C. Longitudinal (T1) relaxation times were measured via an inversion recovery experiment using 10 inversions of duration ranging between 0.05×T1 and 10×T1. Solutions (concentration range: 0.1 mM-1.0 mM) in PBS were run in parallel. To measure the relaxivity of BSA-bound species, sodium cyanoborohydride (10 mg) was added to the solution to irreversibly bind the probe to the protein. After a further 2h incubation at 37° C., protein-bound and protein-free solutions were separated by ultrafiltration. Then 200 μL PBS was added to the residue to dissolve the protein. Longitudinal (T1) relaxation times for the bounded species were measured using a Bruker mq60 Minispec at 1.41 T and 37° C. After the measurement, concentration of corresponding metal ion (Gd/Mn) in the residue and filter were both determined using an Agilent 8800 ICP-MS system. Relaxivity (r1) was determined from the slope of a plot of 1/T1 vs metal concentration for 5 concentrations.

[5] = test system: liver of CCl4 injured mice; assay type: in vivo, mouse; conditions: CCl4 injured mice
Procedure: CCl4 Liver Fibrosis Model:
Male C57BL/6 mice (Charles River Laboratories, Wilmington, MA) were treated with carbon tetrachloride for 12 weeks (0.1 ml of 20% CCl4 in olive oil the first week, 30% the second week, and 40% from weeks 3-12) by oral gavage, 2-3 times per week. Control mice were fed vehicle (olive oil) only.
A total of 53 C57BL/6 mice were included to study CCl4 induced hepatic fibrosis: • A. CCl4 for 12 weeks (n=20). Each mouse was imaged with probe 1 and then imaged again 24 hours later with probe 2. Probe 1 and Probe 2 were randomly chosen from GdDOTA, GdCHyd, Mn-12, Gd-9 and Gd-10. • B. Vehicle treated control (n=20). Each mouse was imaged with probe 1 and then imaged again 24 hours later with probe 2. Probe 1 and Probe 2 were randomly chosen from GdDOTA, Mn-12, GdCHyd, Gd-9, Gd-10. • C. CCl4 for 12 weeks (n=3, another 3 pair-wise comparison have been done in group A). Each mouse was imaged with probe 1 and then imaged again 24 hours later with probe 2. […] Each mouse was imaged with probe 1 and then imaged again 24 hours later with probe 2. Probe 1 and Probe 2 were randomly choosing from Gd-9 and Gd-10. • E. CCl4 for 12 weeks (n=3). Each mouse was imaged with Gd-9. After 24 hours, the same mouse was first injected with 1000 μmol/kg of Yb-9 and then injected with 100 μmol/kg of Gd-9 15 min after the Yb-9 injection.
Animals were anesthetized with isoflurane (1-2%) and placed in a specially designed cradle with body temperature maintained at 37° C. The inhaled isoflurane level was adjusted to maintain a respiration rate of 60±5 breaths per minute. The tail vein was cannulated for intravenous (i.v.) delivery of the contrast agent while the animal was positioned in the scanner. Imaging was performed at 4.7 T using a small bore animal scanner with a custom-built volume coil. Mice were imaged with a dose of 100 μmol/kg from 30 mM stock solution of Gd or Mn complex.
For mice liver imaging, a series of baseline images (3D T1 weighted fast low angle shot magnetic resonance imaging (FLASH)) were first acquired (repetition time/echo time=15/2 ms; flip angle, 30°; field of view, 48×30 mm^2; matrix size, […]; slice thickness, 0.25 mm; acquisition time, 3 minutes 20 seconds), then a bolus of Gd or Mn complex was administered i.v. and imaging performed for a period of 45 min p.i. with the repetition acquisition of 3D T1 weighted FLASH sequences. Following the imaging session, animals were sacrificed (75 min p.i.) and liver tissue was subjected to histopathologic analysis.
For liver imaging analysis, a region of interest (ROI) was manually traced encompassing the liver parenchyma while avoiding major blood vessels. A second ROI was placed on the dorsal muscle visible in the same image slice to quantify the signal intensity in the muscle for comparison. Seven ROIs were placed in the field of view without any tissue (air) to measure the variation in background signal. More than 20 axial slices per mouse across the entire liver were analyzed in this fashion. […] Contrast to noise ratio (CNR) was calculated by measuring the difference in signal intensity (SI) between liver and muscle and normalizing to the standard deviation of the signal in the air, eq 21. ΔCNR was calculated by subtracting CNR measured prior to probe injection (CNRPre) from CNR measured after injection (CNRPost), eq 22. […]

[6] = Relaxivity measurements in PBS; assay type: physicochemical; conditions: 1.4 T, 37° C.
Procedure: as §2

[7] = H2^17O transverse relaxivity vs temperature (inner-sphere water number q); assay type: physicochemical; conditions: temperature dependence of H2^17O transverse relaxivity
Excerpt: FIG. 24. […] The peak relaxivity is indicative of the number of inner-sphere water molecules (q).
as §1

[8] = target: T1, BSA-ALD (oxidized bovine serum albumin containing allysine aldehyde groups) (Bos taurus, UniProt P02769); test: Relaxivity measurements with BSA-Ald; assay type: binding
T1 construct: made in house; host or cells: no expression host: BSA oxidised chemically with sodium ascorbate, ferric chloride and H2O2, then desalted on PD-10
Procedure: Preparation of Allysine Containing Bovine Serum Albumin, BSA-ALD:
To a solution of bovine serum albumin (BSA) (100 mg) dissolved in phosphate buffered saline (4 mL, pH 7.4, 0.25 mM), sodium ascorbate (20 mg), ferric chloride (120 μL, 10 mM) and 20 μL H2O2 (30% w) were added. The reaction was stirred at 37° C. for 24 hours, and sodium ascorbate (20 mg) was added repeatedly every 8 hours. After the reaction, protein was purified using PD-10 Sephadex G25 desalting columns (GE Healthcare), eluted with PBS. Protein concentration was assessed using the ‘BCA Protein Assay Kit’ (Thermo Scientific). Protein carbonyl concentration was determined by ‘Protein Carbonyl Content Assay Kit’ (Sigmal-Aldrich).
Alternatively, preparation of BSA^Ald and binding of Gd^3+ probe to protein was carried out according to modified procedures. To a solution of bovine serum albumin (BSA) (100 mg) dissolved in phosphate buffered saline (4 mL, pH 7.4, 0.25 mM) was added sodium ascorbate (20 mg), ferric chloride (120 μL, 10 mM) and 20 μL H2O2 (30% w). The reaction was stirred at 37° C. for 24 h, and sodium ascorbate (20 mg) was added repeatedly every 8 h. After 24 h, the protein was purified using PD-10 Sephadex G25 desalting columns (GE Healthcare), eluted with PBS. Protein concentration was assessed using the ‘Micro BCA Protein Assay Kit’ (Thermo Scientific, 23235). Protein carbonyl concentration was determined by ‘Protein Carbonyl Content Assay Kit’ (Sigma-Aldrich, MAK094-1KT). […] The protein solutions were kept at a concentration of 20 mg/mL for further use.
as §2

[9] = test system: fibrotic lung tissue of bleomycin-injured mice; test: Biodistribution study for selectivity of allysine-reactive Gd probes (Gd:Eu ratio by ICP-MS); assay type: in vivo, mouse; conditions: 30 minutes after injection, 100 nmol/g, Eu-DOTA co-injected, n = 5
Procedure: C57Bl/6 adult male mice at 8 weeks of age (Jackson Laboratories, Barr Harbor, ME) received a single intratracheal dose of bleomycin, 1 units/kg body weight (50 μL total volume) (Fresenius Kabi, Lake Zurich, Il) as previously described in Desogere, P., et al. Optimization of a Collagen-Targeted PET Probe for Molecular Imaging of Pulmonary Fibrosis. J Nuc Med 58, 1991-1996 (2017).
Imaging and Biodistribution Study for Selectivity of Allysine-Reactive Probes In Vivo:
Bleomycin-injured mice at 14 days after injury were sedated and then injected with Compound 19, Compound 20, Gd-CHyd (Akam, E. A., et al. Improving the reactivity of hydrazine-bearing MRI probes for in vivo imaging of lung fibrogenesis. Chemical Science 11, 224-231 (2020)) formulated to contain an equal concentration of Eu-DOTA as a non-binding control probe. […] Each sample was analyzed by ICP-MS for gadolinium and europium content, and the lungs were also assessed for hydroxyproline content. […] All animals were dosed via tail vein injection at 100 nmol/g body weight from 30 mM solutions of gadolinium probes with 30 mM Eu-DOTA as determined by ICP-MS. […] Animals were euthanized 90 min post injection and their organs and tissues were harvested and counted using a gamma counter. […] The animals were euthanized 90 min post injection and their organs and tissues were counted using a gamma counter. […]

[10] = Reaction rates with 2-formylpyridine measured by HPLC-ICP-MS (Method A); assay type: physicochemical; conditions: Method a: 2-formylpyridine 1000 μM, probe 25 μM, pH 7.40 PBS
Procedure: Quantitative Measurement of Reaction Rates with Aldehydes: Method A: Reaction Rates of Compounds with 2-Formylpyridine Measured by HPLC-ICP-MS
Reactivity of aldehyde-binding probes were assessed in pH 7.40 phosphate-buffered saline under pseudo-first order conditions with 2-formylpyridine concentration of 1000 μM and probes at 25 μM. Concentrations of unreacted starting material and condensation products were determined at 12 min time intervals based on their relative integrations. The values were fit to a standard first order rate constant linear equation and the rate constant was extracted from the slope.

T1 sequence (P02769 25-607): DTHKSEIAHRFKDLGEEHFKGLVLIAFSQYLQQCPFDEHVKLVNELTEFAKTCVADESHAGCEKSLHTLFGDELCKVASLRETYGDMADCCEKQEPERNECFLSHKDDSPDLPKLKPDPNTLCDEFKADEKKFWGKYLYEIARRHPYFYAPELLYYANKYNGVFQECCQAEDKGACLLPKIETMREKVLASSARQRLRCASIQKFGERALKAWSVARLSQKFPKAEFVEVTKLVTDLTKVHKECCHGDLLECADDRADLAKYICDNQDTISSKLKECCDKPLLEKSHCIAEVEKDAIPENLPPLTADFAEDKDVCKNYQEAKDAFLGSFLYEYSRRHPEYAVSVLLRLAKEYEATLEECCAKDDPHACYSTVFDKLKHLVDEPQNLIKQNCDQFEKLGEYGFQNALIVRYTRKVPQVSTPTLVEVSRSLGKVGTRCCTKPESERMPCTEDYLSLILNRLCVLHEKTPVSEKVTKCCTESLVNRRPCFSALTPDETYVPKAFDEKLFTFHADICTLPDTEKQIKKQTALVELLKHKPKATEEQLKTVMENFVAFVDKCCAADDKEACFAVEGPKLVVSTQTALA
Sequence of bovine serum albumin (BSA) (P02769 25-607): as above

SMILES	kinetic inertness to Mn^2+ release [1]	Mn liver levels in healthy mice [2]	k (second order rate constant) [3] [M⁻¹ s⁻¹]	r1, +BSA [4] [mM⁻¹ s⁻¹]	liver enhancement ([5]; 45 min p.i.)	ΔCNR (liver to muscle) ([5]; 45 min post injection, 100 μmol/kg i.v., group mean)	r1, PBS [6] [mM⁻¹ s⁻¹]	inner-sphere number of water molecule (q) [7]	turn-on in relaxivity upon binding to allysine (BSA-Ald bound vs unbound) [8]	r1, +BSA-Ald ([8]; 1.4 T, 37° C., BSA-Ald 10 mg/mL) [mM⁻¹ s⁻¹]	r1, Bound to BSA-Ald ([8]; 1.4 T, 37° C., protein-bound species after NaBH3CN and ultrafiltration) [mM⁻¹ s⁻¹]	Gd:Eu ratio, Left lung [9]	Gd:Eu ratio, Right lung [9]	k (second order rate constant) [10] [M⁻¹ s⁻¹]
NN1CCN(C(=O)CCCN2CCN(CCCC(=O)N3CCN(N)CC3)CCN(CC(=O)[O-])CCN(CC(=O)[O-])CC2)CC1.[Mn+2] [Mn-12]	more inert to Mn^2+ release than Mn-1,4-DO2A; also recorded: increased kinetic stability of Mn-12 compared to unmodified Mn-1,4-DO2A	little accumulation in the healthy liver; also recorded: baseline Mn levels in liver	4.5	2.2	strong signal enhancement	1.5 ± 0.8	1.6	0.44	4 fold and ~5 fold	4.5	7.7			
NOCC(=O)NCCN(CCNC(=O)CCC1C(=O)[O][Gd]23[O]C(=O)CN4CCN(CCN1CCN(CC4)CC(=O)[O]2)CC(=O)[O]3)CCNC(=O)CON (centres unmarked) [Compound 19]												1.4 ± 0.1	1.3 ± 0.2	0.55
